ChEMBL document CHEMBL1201862, “PubChem BioAssay data set” (2004)
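All cell lines were grown in 96-well plates and treated with compound for 48 hours. GI50 marks 50% less growth.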 Active and inactive are the calls of the source. No stated cut-off is given here; in the data, active = GI50 up to about 1.1 µM and inactive = higher.

Experiments:
Experiment in all cases: DTP human tumour cell line panel, 48 h
UACC-62 = test system: UACC-62
HCT-116 = test system: HCT-116
Hs-578T = test system: Hs-578T
MDA-MB-231 = test system: MDA-MB-231
NCI-H23 = test system: NCI-H23
LOX IMVI = test system: LOX IMVI
HT-29 = test system: HT-29
A549 = test system: A549
MCF7 = test system: MCF7
NCI-H460 = test system: NCI-H460
SW-620 = test system: SW-620
MOLT-4 = test system: MOLT-4
SK-MEL-2 = test system: SK-MEL-2
SN12C = test system: SN12C
U-251 = test system: U-251
RPMI-8226 = test system: RPMI-8226
A498 = test system: A498
MDA-N = test system: MDA-N

## CN(C)Cc1cc(C(C)(C)C)cc(C2CCCCC2)c1O
UACC-62
  GI50: 16.1 µM (inactive)
HCT-116
  GI50: 40.7 µM (inactive)
Hs-578T
  GI50: 16.6 µM (inactive)
MDA-MB-231
  GI50: 13.8 µM (inactive)
NCI-H23
  GI50: 24.9 µM (inactive)
LOX IMVI
  GI50: 15.2 µM (inactive)
HT-29
  GI50: 2.86 µM (inactive)
A549
  GI50: 13.6 µM (inactive)
MCF7
  GI50: 18.3 µM (inactive)
NCI-H460
  GI50: 19.1 µM (inactive)
SW-620
  GI50: 16.6 µM (inactive)
MOLT-4
  GI50: 10.8 µM (inactive)
SK-MEL-2
  GI50: 18.3 µM (inactive)
SN12C
  GI50: 15.7 µM (inactive)
U-251
  GI50: 14.4 µM (inactive)
RPMI-8226
  GI50: < 0.01 µM (active)

## COC1=C(OC)C(=O)C(Cc2c(Cl)nc3sccn23)=C(C)C1=O
UACC-62
  GI50: 5.2 µM (inactive)
HCT-116
  GI50: 13.6 µM (inactive)
Hs-578T
  GI50: 11.4 µM (inactive)
MDA-MB-231
  GI50: 2.38 µM (inactive)
NCI-H23
  GI50: 5.36 µM (inactive)
LOX IMVI
  GI50: 2.96 µM (inactive)
HT-29
  GI50: 14.6 µM (inactive)
A549
  GI50: 11.6 µM (inactive)
MCF7
  GI50: 10.2 µM (inactive)
NCI-H460
  GI50: 12.8 µM (inactive)
SW-620
  GI50: 13.7 µM (inactive)
MOLT-4
  GI50: 1.85 µM (inactive)
SK-MEL-2
  GI50: 14.1 µM (inactive)
A498
  GI50: 12.8 µM (inactive)
SN12C
  GI50: 13.4 µM (inactive)
U-251
  GI50: 12.6 µM (inactive)
RPMI-8226
  GI50: 2.34 µM (inactive)

## COc1cc(S(=O)(=O)Nc2ccc(-c3csc(/N=C\C=C\c4ccccc4)n3)cc2)ccc1Cl
UACC-62
  GI50: 37.9 µM (inactive)
HCT-116
  GI50: 46.8 µM (inactive)
Hs-578T
  GI50: 87.3 µM (inactive)
NCI-H23
  GI50: 30.9 µM (inactive)
LOX IMVI
  GI50: 29.6 µM (inactive)
HT-29
  GI50: > 100 µM (inactive)
A549
  GI50: 80.5 µM (inactive)
MCF7
  GI50: 36.1 µM (inactive)
NCI-H460
  GI50: 0.0484 µM (active)
SW-620
  GI50: > 100 µM (inactive)
MOLT-4
  GI50: 38.1 µM (inactive)
SK-MEL-2
  GI50: 26 µM (inactive)
A498
  GI50: 20.6 µM (inactive)
SN12C
  GI50: > 100 µM (inactive)
MDA-N
  GI50: > 100 µM (inactive)
RPMI-8226
  GI50: 27.3 µM (inactive)

## COc1c(F)c(F)c(C(=O)/C=C2\Nc3ccccc3NC2=O)c(F)c1F
UACC-62
  GI50: > 10 µM (inactive)
MDA-MB-231
  GI50: > 10 µM (inactive)
NCI-H23
  GI50: > 10 µM (inactive)
LOX IMVI
  GI50: 2.89 µM (inactive)
HT-29
  GI50: 6.98 µM (inactive)
A549
  GI50: 9.16 µM (inactive)
MCF7
  GI50: > 10 µM (inactive)
SW-620
  GI50: 8.38 µM (inactive)
MOLT-4
  GI50: > 10 µM (inactive)
SN12C
  GI50: > 10 µM (inactive)
MDA-N
  GI50: > 10 µM (inactive)
RPMI-8226
  GI50: > 10 µM (inactive)

## NC1=Nc2ccccc2Sc2nncn21
UACC-62
  GI50: > 100 µM (inactive)
HCT-116
  GI50: > 100 µM (inactive)
Hs-578T
  GI50: > 100 µM (inactive)
MDA-MB-231
  GI50: 85.3 µM (inactive)
NCI-H23
  GI50: > 100 µM (inactive)
LOX IMVI
  GI50: > 100 µM (inactive)
HT-29
  GI50: > 100 µM (inactive)
A549
  GI50: > 100 µM (inactive)
MCF7
  GI50: > 100 µM (inactive)
NCI-H460
  GI50: > 100 µM (inactive)
SW-620
  GI50: > 100 µM (inactive)
MOLT-4
  GI50: > 100 µM (inactive)
SK-MEL-2
  GI50: > 100 µM (inactive)
A498
  GI50: > 100 µM (inactive)
SN12C
  GI50: > 100 µM (inactive)
U-251
  GI50: > 100 µM (inactive)
RPMI-8226
  GI50: > 100 µM (inactive)

## COC(=O)[C@@H]1CCc2nc3ccccc3c(=O)n21
UACC-62
  GI50: > 100 µM (inactive)
HCT-116
  GI50: > 100 µM (inactive)
Hs-578T
  GI50: > 100 µM (inactive)
MDA-MB-231
  GI50: > 100 µM (inactive)
NCI-H23
  GI50: > 100 µM (inactive)
LOX IMVI
  GI50: > 100 µM (inactive)
HT-29
  GI50: > 100 µM (inactive)
A549
  GI50: > 100 µM (inactive)
NCI-H460
  GI50: > 100 µM (inactive)
SW-620
  GI50: > 100 µM (inactive)
MOLT-4
  GI50: > 100 µM (inactive)
SK-MEL-2
  GI50: > 100 µM (inactive)
A498
  GI50: > 100 µM (inactive)
SN12C
  GI50: > 100 µM (inactive)
MDA-N
  GI50: > 100 µM (inactive)
U-251
  GI50: > 100 µM (inactive)
RPMI-8226
  GI50: > 100 µM (inactive)

## CC(C)[Si]1(C(C)C)OCC2OC3(CO)C(Oc4nc(=O)ccn43)C2O[Si](C(C)C)(C(C)C)O1 (centres undefined)
UACC-62
  GI50: 12.8 µM (inactive)
HCT-116
  GI50: 10.9 µM (inactive)
Hs-578T
  GI50: 22.4 µM (inactive)
MDA-MB-231
  GI50: 10.2 µM (inactive)
NCI-H23
  GI50: 15.5 µM (inactive)
LOX IMVI
  GI50: 15 µM (inactive)
HT-29
  GI50: 12.4 µM (inactive)
MCF7
  GI50: 5.9 µM (inactive)
NCI-H460
  GI50: 15 µM (inactive)
SW-620
  GI50: 15.5 µM (inactive)
MOLT-4
  GI50: 7.55 µM (inactive)
SK-MEL-2
  GI50: 16.3 µM (inactive)
U-251
  GI50: 14.2 µM (inactive)
RPMI-8226
  GI50: 5.81 µM (inactive)

## OC(c1ccc(F)cc1)C(F)(F)c1nc2ccccc2o1 (centres undefined)
UACC-62
  GI50: > 100 µM (inactive)
HCT-116
  GI50: > 100 µM (inactive)
MDA-MB-231
  GI50: 83.8 µM (inactive)
NCI-H23
  GI50: > 100 µM (inactive)
LOX IMVI
  GI50: > 100 µM (inactive)
HT-29
  GI50: > 100 µM (inactive)
MCF7
  GI50: > 100 µM (inactive)
NCI-H460
  GI50: > 100 µM (inactive)
SW-620
  GI50: > 100 µM (inactive)
MOLT-4
  GI50: 46.6 µM (inactive)
SK-MEL-2
  GI50: > 100 µM (inactive)
A498
  GI50: 34.4 µM (inactive)
U-251
  GI50: > 100 µM (inactive)
RPMI-8226
  GI50: 90.6 µM (inactive)

## COc1ccc2c(c1)C(=O)OCCC2
UACC-62
  GI50: > 100 µM (inactive)
HCT-116
  GI50: > 100 µM (inactive)
Hs-578T
  GI50: > 100 µM (inactive)
MDA-MB-231
  GI50: > 100 µM (inactive)
NCI-H23
  GI50: > 100 µM (inactive)
HT-29
  GI50: > 100 µM (inactive)
A549
  GI50: > 100 µM (inactive)
MCF7
  GI50: > 100 µM (inactive)
NCI-H460
  GI50: > 100 µM (inactive)
SW-620
  GI50: > 100 µM (inactive)
MOLT-4
  GI50: > 100 µM (inactive)
SK-MEL-2
  GI50: > 100 µM (inactive)
A498
  GI50: > 100 µM (inactive)
SN12C
  GI50: > 100 µM (inactive)
U-251
  GI50: > 100 µM (inactive)
RPMI-8226
  GI50: > 100 µM (inactive)
